Results reported in patent publication US20040147531A1, “Amidine derivatives for treating amyloidosis” (priority 2001, published 2004).

Tests used:
Set-up in all cases: key: “+” = active; “−” = inactive; “pr” = promoting
Aβ (1-40) = target: T1, Aβ (1-40) (Homo sapiens, UniProt P05067); test: thioflavin T fluorescent assay (ThT assay) for fibrillogenesis; type: biochemical; settings: Aβ (1-40) 20 μM, 5 μM Thioflavin T, pH 7.40, 37° C.; inhibition of fibrillogenesis
T1 construct: Aβ peptide: Aβ (1-40) 95% purity (American Peptide Company, Inc, Sunnyvale, Calif. USA); purchased American Peptide Company, Inc, Sunnyvale, Calif; USA
T1 sequence (P05067 672-711 limits assumed): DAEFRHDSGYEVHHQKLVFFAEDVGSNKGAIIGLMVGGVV
Description: Test compounds were purchased from commercial sources or synthesized and screened by thioflavin T fluorescent assay (“ThT assay”). Alternatively, one could screen test compounds by circular dichroism (“CD”), electron microscopy (“EM”), or mass spectroscopy (“MS”) assays. The MS assay gives data on the ability of compounds to bind to an amyloid protein, whereas the ThT, EM, and CD assays give data on inhibition of fibrillogenesis. The thioflavin T fluorescent assay for fibrillogenesis is based on the principle that the fluorescent dye, thioflavin T, binds specifically to fibrillar, but not to unaggregate Aβ peptide (LeVine III, H., 1993, Protein Science 2:404-410). Upon binding, thioflavin T develops a characteristic fluorescence (Naiki, H., et al., 1996, Lab. Invest. 74: 374-383) which can be easily detected. The dye is believed to interact with the stacked cross-β pleated sheets, the common structural motif of all amyloid (LeVine III, H., 1995, Amyloid: Int. J. Exp. Clin Invest. 2:1.6). Thioflavin T is widely used to assay the effect of compounds on fibrillogenesis of Aβ peptide and other amyloid proteins (Bronfman, P. C., et al., 1995, Neuroscience Lett. 218:201-203). In this assay, test compounds are incubated with a solution of Aβ (1-40) (20 μM) or IAPP (10 μM) containing 5 μM Thioflavin T, in 0.02M Tris/0.02M acetate/0.15M NaCl/0.005% azide/pH 7.40 at 37° C. in sealed 384 well microplates. Readings (ex 430 nm/em 485 nm) are taken at various time intervals with a microplate fluorescence reader. An increase in fluorescence signifies the appearance of amyloid or intermediates in the production of amyloid, as illustrated in the Figures (in general, a compound which inhibits fibrillogenesis produces lower fluorescence in the assay because the fluorescence of ThT is greater when bound to fibrils). Protocol: Aβ peptide: Aβ (1-40) 95% purity (American Peptide Company, Inc, Sunnyvale, Calif. USA) is disaggregated in trifluoroacetic acid and filtered through a […] filter, (Whatman Anotop 25 plus, 0.02 μm, Catalogue no. 6809 4102) in hexafluoroisopropanol (HFIP). Solutions of Aβ (1-40) or IAPP at 600 μm in HFIP are stored at −80° C. Assay mixture: The mixture is prepared as two solutions which are combined upon addition to the 384 well microplate (Corning Costar cat. 3705). i) Solution A consists of test compounds in 0.02M Tris/0.02M acetate/0.15M NaCl/0.01% azide at pH 7.40 or buffer alone (control), ii) Solution B consists of Aβ (1-40) 40 μM or IAPP 20 μM, Thioflavin T […] in 0.02M Tris/0.02M acetate/0.15M NaCl at pH 7.40. This solution is prepared by drying the Aβ peptide under nitrogen and then resuspending this in 0.04M Tris base with 15 minutes sonication. An equal volume of 0.04M acetic acid containing 0.3 M NaCl is added and the solution is adjusted to 7.40±0.02. A small volume of 20 mM Thioflavin T is added to the solution to give a final 5 μM concentration of Thioflavin T. iii) The microplate is loaded with 40 μL of solution A followed by 40 μL of solution B which gives a final 20 μM Aβ (1-40) or 10 μM IAPP, 5 μM Thioflavin T, and a given concentration of test compound in 0.02M Tris/0.02M acetate/0.15M NaCl/0.005% azide, pH 7.40. The plate is sealed and loaded into the microplate fluorescence reader. Fluorescence measurement data analysis: The HTS-7000 Bio Assay Reader, Perkin Elmer, is used to perform kinetic runs of about 1 day. Readings were taken at 15 minute intervals, with one minute shaking before each read. Bandpass filters used were: excitation 430 nm, emission […].

Aβ [1] = target: T2, Aβ (Homo sapiens, UniProt P05067); test: circular dichroism (CD) assay, inhibition of fibrillogenesis; type: biochemical; settings: soluble Aβ, 37° C., 190-240 nm
T2 construct: Aβ peptide: Aβ (1-40) 95% purity (American Peptide Company, Inc, Sunnyvale, Calif. USA)
T2 sequence (P05067 672-711 limits assumed): as above
Description: (§1) Test compounds were purchased from commercial sources or synthesized and screened by thioflavin T fluorescent assay (“ThT assay”). Alternatively, one could screen test compounds by circular dichroism (“CD”), electron microscopy (“EM”), or mass spectroscopy (“MS”) assays. The MS assay gives data on the ability of compounds to bind to an amyloid protein, whereas the ThT, EM, and CD assays give data on inhibition of fibrillogenesis.
In the circular dichroism (“CD”) assay, samples were transferred to 0.1-cm path-length quartz cuvettes and CD scans were taken using a Jasco J-715 spectropolarimeter. Readings were taken at 37° C., between 190 and 240 nm, with a resolution of 0.1 nm and a bandwidth of 1 nm. […]

Aβ [2] = target: T2, Aβ; test: electron microscopy (EM) assay, inhibition of fibrillogenesis; type: biochemical; settings: soluble Aβ
Description: as §1
Similarly, in the electron microscopy (“EM”) assay, each sample was sonicated for 1 min to disrupt large clumps before testing. The sample (5-μL aliquot) was placed on freshly cleaved mica and allowed to air dry. The mica was placed in a Balzers High-vacuum, Freeze-Etch Unit (model 301), shadowed with platinum (30° angle), and coated with a carbon film. The replica was removed from the mica by flotation and transferred onto a 300-mesh copper grid. Samples were examined using a Joel 2000 FX transmission electron microscope. […]

Aβ40 = target: T3, Aβ40 (Homo sapiens, UniProt P05067); test: mass spectroscopy (MS) assay, binding to Aβ; settings: 200 μM test compound, 20 μM solubilized Aβ40, pH 7.4; ability to bind to Aβ
T3 construct: 200 μM of a test compound and 20 μM of solubilized Aβ40
T3 sequence (P05067 672-711 limits assumed): as above
Description: Test compounds were purchased from commercial sources or synthesized and screened by thioflavin T fluorescent assay (“ThT assay”). Alternatively, one could screen test compounds by circular dichroism (“CD”), electron microscopy (“EM”), or mass spectroscopy (“MS”) assays.
And in the mass spectroscopy (“MS”) assay, samples were prepared as aqueous solutions containing 20% ethanol, 200 μM of a test compound and 20 μM of solubilized Aβ40. The pH value of each sample was adjusted to 7.4 (±0.2) by addition of 0.1% aqueous sodium hydroxide. The solutions were then analyzed by electrospray ionization mass spectroscopy using a Waters ZQ 4000 mass spectrometer. Samples were introduced by direct infusion at a flow-rate of 25 μL/min within 2 hr. after sample preparation. The source temperature was kept at 70° C. and the cone voltage was 20 V for all the analysis. Data were processed using Masslynx 3.5 software.

SMILES	ThT Assay (Aβ (1-40))	CD (Aβ [1])	EM (Aβ [2])	MS Assay (Aβ40)
N=C(N)c1ccc(OCOc2ccc(C(=N)N)cc2)cc1 [Compound 9]	+	+	−	+
N=C(N)c1ccc(-c2cc3ccc(C(=N)N)cc3[nH]2)cc1 [Compound 28]	+	+	+	
N=C(N)c1ccc(OCCC(O)COc2ccc(C(=N)N)cc2)cc1 (stereo not shown) [Compound 31]	+		−	+
Cl.N=C(N)c1ccccc1 [Compound 46]	−	−	−	
c1cc(COc2ccc(C3=NCCN3)cc2)cc(COc2ccc(C3=NCCN3)cc2)c1 [Compound 25]	+		+	
c1cc(COc2ccc(C3=NCCN3)cc2)ccc1COc1ccc(C2=NCCN2)cc1 [Compound 27]	pr			
N=C(N)c1ccc(OCc2cccc(COc3ccc(C(=N)N)cc3)c2)cc1 [Compound 24]	+		+	+
N=C(N)c1ccc(OCCCCOc2ccc(C(=N)N)cc2)cc1 [Compound 5]	+			+
N=C(N)c1ccc(OCc2ccc(COc3ccc(C(=N)N)cc3)cc2)cc1 [Compound 26]	+		−	
N=C(N)CCCOc1ccc(C(=N)N)cc1 [Compound 41]	+			+
c1cc(C2=NCCN2)ccc1OCCOCCOc1ccc(C2=NCCN2)cc1 [Compound 35]	+		−	+
